Test results: patent US8557741B2, “3-aminocarbonyl-substituted benzoylcyclohexanediones and their use as herbicides” (Bayer CropScience AG, priority 2010, dated 2013)
Read-outs that look alike come from different tables or passages of the source.

Columns and labels:
Type in all cases: in vivo
Stellaria media [1] = assay: Post-emergence herbicidal action against harmful plants; details: 504 h, dosage 80 g/ha, visual rating after about 3 weeks (Table D), read-out: Herbicidal action against STEME
Text: (§1) The abbreviations used in the tables below denote: • ABUTH Abutilon theophrasti • AMARE Amaranthus retroflexus • ECHCG Echinochloa crus galli • PHBPU Phartoitis purpureum • STEME Stellaria media • ALOMY Alopecurus myosuroides • AVEFA Avena fatua • MATIN Matricaria inodora • POLCO Fallopia convolvulus • VERPE Veronica persica 1. Pre-emergence Herbicidal Action Against Harmful Plants Seeds of monocotyledonous and dicotyledonous weed and crop plants are placed in sandy loam in wood-fibre pots, covered with soil and cultivated in a greenhouse under good growth conditions. 2 to 3 weeks after sowing, the test plants are treated at the one-leaf stage. The compounds according to the invention, formulated in the form of wettable powders (WP) or as emulsion concentrates (EC), are then sprayed as aqueous suspension or emulsion at a water application rate of 600 to 800 I/ha (converted) with the addition of 0.2% of wetting agent onto the green parts of the plants. After the test plants have been kept in the greenhouse under optimum growth conditions for about 3 weeks, the activity of the preparations is rated visually in comparison to untreated controls (herbicidal activity in percent (%): 100% activity=the plants have died, 0% activity=control plants, —=not tested).

Veronica persica [2] = assay: as above; details: 504 h, dosage 80 g/ha, visual rating after about 3 weeks (Table D), read-out: Herbicidal action against VERPE
Text: as §1

Matricaria inodora [3] = assay: as above; details: Tripleurospermum inodorum, 504 h, dosage 80 g/ha, read-out: Herbicidal action against MATIN
Text: as §1

Amaranthus retroflexus [4] = assay: as above; details: 504 h, dosage 80 g/ha, visual rating after about 3 weeks (Table D), read-out: Herbicidal action against AMARE
Text: as §1

Abutilon theophrasti [5] = assay: as above; details: 504 h, dosage 80 g/ha, read-out: Herbicidal action against ABUTH
Text: as §1

Phartoitis purpureum [6] = assay: as above; details: 504 h, dosage 80 g/ha
Text: as §1

Echinochloa crus galli [7] = assay: as above; details: 504 h, dosage 80 g/ha, visual rating after about 3 weeks (Table D), read-out: Herbicidal action against ECHCG
Text: as §1

Stellaria media [8] = assay: Pre-emergence herbicidal action against harmful plants; details: 504 h, dosage 320 g/ha, visual assessment after 3 weeks (Table A), read-out: Herbicidal action against STEME
Text: (§2) The abbreviations used in the tables below denote: • ABUTH Abutilon theophrasti • AMARE Amaranthus retroflexus • ECHCG Echinochloa crus galli • PHBPU Phartoitis purpureum • STEME Stellaria media • ALOMY Alopecurus myosuroides • AVEFA Avena fatua • MATIN Matricaria inodora • POLCO Fallopia convolvulus • VERPE Veronica persica 1. Pre-emergence Herbicidal Action Against Harmful Plants Seeds of monocotyledonous and dicotyledonous weed plants and crop plants are placed in wood-fibre pots in sandy loam and covered with soil. The compounds according to the invention and the compounds known from the prior art, formulated in the form of wettable powders (WP) or as emulsion concentrates (EC), are then applied as aqueous suspension or emulsion at a water application rate of 600 to 800 I/ha (converted) with the addition of 0.2% of wetting agent to the surface of the covering soil. After the treatment, the pots are placed in a greenhouse and kept under good growth conditions for the test plants. The visual assessment of the damage to the test plants is carried out after a trial period of 3 weeks by comparison with untreated controls (herbicidal activity in percent (%): 100% activity=the plants have died, 0% activity=like control plants, —=not tested). The results of comparative table A show the compounds according to the invention have a higher herbicidal activity than the compounds of the greatest structural similarity known from the closest prior art.

Veronica persica [9] = assay: as above; details: 504 h, dosage 320 g/ha, visual assessment after 3 weeks (Table A), read-out: Herbicidal action against VERPE
Text: as §2

Matricaria inodora [10] = assay: as above; details: Tripleurospermum inodorum, 504 h, dosage 320 g/ha, visual assessment after 3 weeks (Table A), read-out: Herbicidal action against MATIN
Text: as §2

Amaranthus retroflexus [11] = assay: as above; details: 504 h, dosage 320 g/ha, visual assessment after 3 weeks (Table A), read-out: Herbicidal action against AMARE
Text: as §2

Abutilon theophrasti [12] = assay: as above; details: Abutilon theophrasti, 504 h, dosage 320 g/ha, visual assessment after 3 weeks (Table A), read-out: Herbicidal action against ABUTH
Text: as §2

Phartoitis purpureum [13] = assay: as above; details: dosage 320 g/ha, visual assessment after 3 weeks (Table A)
Text: as §2

Echinochloa crus galli [14] = assay: as above; details: Echinochloa, 504 h, dosage 320 g/ha, visual assessment after 3 weeks (Table A), read-out: Herbicidal action against ECHCG
Text: as §2

Fallopia convolvulus = assay: Post-emergence herbicidal action against harmful plants; details: 504 h, dosage 80 g/ha, read-out: Herbicidal action against POLCO
Text: as §1

[15] = visual rating after about 3 weeks (Table D)
[16] = visual rating after about 3 weeks (Table D), read-out: Herbicidal action against PHBPU
[17] = visual rating after about 3 weeks (Table E)
[18] = visual rating after about 3 weeks (Table E), read-out: Herbicidal action against PHPBU

| SMILES | pest or weed control at 80 g/ha (Stellaria media [1]) [%] | pest or weed control at 80 g/ha (Veronica persica [2]) [%] | pest or weed control at 80 g/ha (Matricaria inodora [3]; [15]) [%] | pest or weed control at 80 g/ha (Amaranthus retroflexus [4]) [%] | pest or weed control at 80 g/ha (Abutilon theophrasti [5]; [15]) [%] | pest or weed control at 80 g/ha (Phartoitis purpureum [6]; [16]) [%] | pest or weed control at 80 g/ha (Echinochloa crus galli [7]) [%] | pest or weed control at 320 g/ha (Stellaria media [8]) [%] | pest or weed control at 320 g/ha (Veronica persica [9]) [%] | pest or weed control at 320 g/ha (Matricaria inodora [10]) [%] | pest or weed control at 320 g/ha (Amaranthus retroflexus [11]) [%] | pest or weed control at 320 g/ha (Abutilon theophrasti [12]) [%] | Herbicidal action against PHBPU (Phartoitis purpureum [13]) [%] | pest or weed control at 320 g/ha (Echinochloa crus galli [14]) [%] | pest or weed control at 80 g/ha (Fallopia convolvulus; [15]) [%] | pest or weed control at 80 g/ha (Matricaria inodora [3]; [17]) [%] | pest or weed control at 80 g/ha (Abutilon theophrasti [5]; [17]) [%] | pest or weed control at 80 g/ha (Phartoitis purpureum [6]; [18]) [%] | pest or weed control at 80 g/ha (Fallopia convolvulus; [17]) [%] |
| --- | --- | --- | --- | --- | --- | --- | --- | --- | --- | --- | --- | --- | --- | --- | --- | --- | --- | --- | --- |
| CCN(CC)C(=O)COc1c(S(C)(=O)=O)ccc(C(=O)C2=C(O)CCCC2=O)c1C(F)(F)F [Compound E2] | 100 | 100 | 100 | 100 | 90 | 100 | 90 | 90 | 100 | 100 | 100 | 100 | 80 | 100 |  |  |  |  |  |
| CCN(CC)C(=O)COc1c(S(=O)(=O)CC)ccc(C(=O)C2=C(O)CCCC2=O)c1C(F)(F)F [Compound E3] | 100 | 100 | 90 | 100 | 100 | 90 | 100 | 100 | 100 | 100 | 100 | 100 | 90 | 100 | 90 |  |  |  |  |
| CN(C)C(=O)COc1c(S(C)(=O)=O)ccc(C(=O)C2=C(O)CCCC2=O)c1C(F)(F)F [Compound E4] | 100 | 100 | 90 | 90 | 90 |  |  | 90 | 100 | 100 | 100 | 100 |  | 100 | 70 |  |  |  |  |
| CCN(C)C(=O)COc1c(S(=O)(=O)CC)ccc(C(=O)C2=C(O)CCCC2=O)c1C(F)(F)F [Compound E6] | 100 | 100 | 100 | 90 | 100 | 100 | 100 | 100 | 100 | 100 | 100 | 100 |  | 100 | 90 |  |  |  |  |
| CCS(=O)(=O)c1ccc(C(=O)C2=C(O)CCCC2=O)c(C(F)(F)F)c1OCC(=O)NC [Compound E10] |  |  |  |  |  |  |  |  |  |  |  |  |  |  |  | 90 | 100 | 100 | 100 |
| CCN(CC)C(=O)COc1c(S(C)(=O)=O)ccc(C(=O)C2=C(O)CCCC2=O)c1Cl [Compound S2, reference compound] | 90 | 90 | 70 | 90 | 80 | 90 | 30 | 20 | 100 | 60 | 100 | 40 | 70 | 70 |  |  |  |  |  |
| CCN(CC)C(=O)COc1c(S(=O)(=O)CC)ccc(C(=O)C2=C(O)CCCC2=O)c1Cl [Compound S3, reference compound] | 90 | 90 | 70 | 100 | 90 | 60 | 0 | 50 | 100 | 80 | 80 | 70 | 40 | 50 | 40 |  |  |  |  |
| CN(C)C(=O)COc1c(S(C)(=O)=O)ccc(C(=O)C2=C(O)CCCC2=O)c1Cl [Compound S4, reference compound] | 90 | 90 | 70 | 60 | 70 |  |  | 90 | 100 | 80 | 100 | 50 |  | 40 | 0 |  |  |  |  |
| CCN(C)C(=O)COc1c(S(=O)(=O)CC)ccc(C(=O)C2=C(O)CCCC2=O)c1Cl [Compound S6, reference compound] | 90 | 100 | 80 | 80 | 90 | 80 | 20 | 80 | 90 | 80 | 100 | 100 |  | 90 | 0 |  |  |  |  |
| CCS(=O)(=O)c1ccc(C(=O)C2=C(O)CCCC2=O)c(Cl)c1OCC(=O)NC [Compound S10, reference compound] |  |  |  |  |  |  |  |  |  |  |  |  |  |  |  | 70 | 90 | 90 | 80 |
